Data published in patent US20110217293A1, “Uses of morelloflavone” (priority 2008, published 2011).
Entries after “also recorded” stand apart in the source; their conditions may differ.

Key:
[1] = test system: vascular smooth muscle cells; assay: DNA fragmentation (apoptosis) assay; assay type: cell-based
Description: Mouse vascular smooth muscle cells, isolated as described (13), were maintained in 231 media (Cascade Biologics, Portland, Oreg.) supplemented with SMGS (Cascade Biologics) in a humidified incubator at 37° C. with 5% CO2. Cells from passages 4-9 were used in all experiments. All experiments were performed in subconfluent, unsynchronized cells growing in SMGS except for the lamellipodium formation assay.
Vascular smooth muscle cells were seeded at 1×10^5 cells per well in 24-well culture plates, treated with morelloflavone, and subjected to DNA fragmentation assay, according to the manufacturer's instructions (Cell Death Detection ELISAPLUS, Roche). Briefly, the cells were treated with […] of morelloflavone for 24 hrs. The 1×10^5 cells were lysed, cleared by centrifugation, and transferred into streptavidin-coated plates. Anti-histone antibody conjugated to biotin and anti-nucleosomal-DNA-antibody conjugated to horseradish peroxidase were added. After incubation and washing, 2,2′-azino-bis-[3-ethylbenzthiazoline-6-sulfonic acid] (ABTS) substrate solution was added. The 5 absorbance rate at 405 nm against ABTS solution was measured with the reference wavelength of 490 nm.

Analysis of lipids = assay type: in vivo, mouse; conditions: Ldlr−/−Apobec1−/− mice, morelloflavone diet 8 months
Description: Plasma levels of triglycerides, total cholesterol, phospholipids, and non-esterified fatty acids of control and morelloflavone-treated animals were measured and using commercially available kits according to manufacturer's instruction (Randox Laboratories, Crumlin, UK; Thermo Fisher Scientific, Waltham, Mass.; Wako Chemicals, Richmond, Va.).

Ldlr−/−Apobec1−/− mice = assay: Analysis of atherosclerotic lesions (en-face and cross-sectional); assay type: in vivo, mouse; conditions: 8 months
Description: As a model of in vivo athereosclerosis, mice that lack the low density lipoprotein (LDL) receptor and Apobec 1 genes (Ldlr^−/−Apobec1^−/−) were used. The Ldlr^−/−Apobec1^−/− mice were generated by crossbreeding Ldlr^−/− mice (Jackson Lab, Bar Harbor, Me.) and Apobec1^−/− mice (Dr. Lawrence Chan, Baylor College of Medicine). Genotyping was performed in standard PCR-based methods, using following primer sets: For Apobec1, 5′-TGAGTGAGTGGTGGTGGTAAAG-3′ (SEQ ID NO: 1) and 5′-CGAAATTCCTCCAGCAGTAAC-3′ (SEQ ID NO: 2) where […] and […] mice would have 475 by amplicon while Apobec1^−/− have none. For Ldlr, 5′-ACCCCAAGACGTGCTCCCAGGATGA-3′ (SEQ ID NO: 3), 5′-CGCAGTGCTCCTCATCTGACTTGT-3′ (SEQ ID NO: 4), 5′-AGGATCTCGTCGTGACCCATGGCGA-3′ (SEQ ID NO: 5), and 5′-GAGCGGCGATACCGTAAAGCACGAGG-3′ (SEQ ID NO: 6) where Ldlr^+/+ mice would yield 383 bp amplicon, while Ldlr^−/− 200 bp and […] amplicons, respectively.
Twenty four (24) 8 week old Ldlr^−/−Apobec1^−/− mice were randomly assigned to either control group (normal rodent chow, Lab Diet, Richmond, Ind., N=12) or morelloflavone group (normal rodent chow supplemented with 0.003% (w/w) morelloflavone, N=12). The 0.003% (w/w) morelloflavone corresponds to approximately 4 mg/kg morelloflavone for 30 gram animals that consume 4 grams of chow. Animals were housed individually in an air-conditioned room with 12-h light/dark cycle with access to food and water. Body weight of these mice was monitored monthly. After 8 months, animals were sacrificed for analyses of atherosclerosis. Just prior to the sacrifice, blood was sampled from the heart and collected into micro-centrifuge tubes containing EDTA. The entire aortae were excised. All animal experimentation protocols were performed according to the protocol approved by the Institutional Animal Care and Use Committee (IACUC) of the University of Texas Health Science Center at Houston, in accordance with the National Institutes of Health guidelines.
The aortae and hearts were excised en bloc. The extent and degree of atherosclerosis was quantified by both en-face analyses of atherosclerosis lesions and the intimal areas of the ascending aortae at the level of aortic valve leaflet. For en-face analysis of atherosclerotic areas, the distal portion of the ascending aortae, aortic arches, and descending aortae down to the liac bifurcations were pinned flat on a white wax surface, fixed with 10% (v/v) buffered formalin solution overnight, stained by freshly prepared and filtered Oil red O solution for 1 hr, rinsed twice with 78% methanol, mounted and dried on the glass slides, and scanned in the TIFF format using the ScanScope slide scanning system (Nikon, Melville, N.Y.). The planimetry of the entire surface areas and Oil red O-positive atherosclerotic lesion areas was performed on the scanned images using Sigma Scan Pro software (SPSS Science, Chicago, Ill.).
For the cross sectional analyses of atherosclerosis, the roots of the ascending aortae were embedded in OCT compound (Tissue-Tek®, Sakura-Fineteck U.S.A., Torrance, Calif.). […] In both methods of atherosclerosis quantification, the images of aortae were digitally captured and stored in the TIFF format, using the ScanScope slide scanning system (Nikon, Melville, N.Y.). The quantification of the atherosclerotic area was performed by Image J software (NIH, Bethesda, Md.) and expressed at lesion areas (μm^2).

c-Src = assay: Western blot, phosphorylation of c-Src; assay type: cell-based, mouse; conditions: low concentrations (0.1 & 1 mM), 5 min
Description: (§1) For the evaluation of phosphorylated FAK and c-Src, Western blot analyses were performed as described (15). Briefly, vascular smooth muscle cells were seeded on 10-cm dishes, treated with various concentrations of morelloflavone for 5 min, and harvested into RIPA buffer with protease inhibitor cocktails. Cleared cell lysates ([…] of protein) were incubated with anti-FAK or anti-c-Src antibodies at 4° C. for 1 hr in a final volume of 1 mL RIPA buffer, and incubated for another 1 hr with protein A/G agarose beads (Santa Cruz; SCBT sc-2003). Immunoprecipitated proteins were eluted into SDS-loading 7 buffer and subjected to 12% SDS-PAGE and immunoblotting using anti-FAK (Santa Cruz; A-17; sc-557) and anti-c-Src (Santa Cruz; SRC-2; sc-18) antibodies for total FAK and c-Src, respectively, and anti-phosphotyrosine antibody (Santa Cruz; PY-20; sc-508) for phosphorylated FAK and c-Src. Densitometric analyses were performed using Adobe Photoshop (Adobe Systems Incorporated, San Jose, Calif.).

[2] = test system: focal adhesion kinase (FAK); assay: Western blot, phosphorylation of FAK; assay type: cell-based, mouse; conditions: low concentrations (0.1 & 1 mM), 5 min
Description: as §1

O=C1c2c(O)cc(O)cc2O[C@H](c2ccc(O)cc2)[C@H]1c1c(O)cc(O)c2c(=O)cc(-c3ccc(O)c(O)c3)oc12 [morelloflavone, 5,7, 4′, 5″, 7″, 3″, 4″-heptahydroxy-[3,8″]-flavonylflavanone]
DNA fragmentation indices, trend with concentration ([1]; 0, 1, 10, 100 mM): decreased as morelloflavone concentrations increased | apoptosis / induction of DNA fragmentation ([1]; concentrations equal to or less than 100 mM, 24 hrs): did not induce DNA fragmentation; also recorded: does not cause apoptosis; also recorded: does not induce cytotoxicity | change in serum phospholipid concentration (Analysis of lipids): no changes | non-esterified fatty acid levels (Analysis of lipids): 0.89±0.13 | serum cholesterol (Analysis of lipids): 507.2 ± 95.8 mg/dL | serum triglycerides (Analysis of lipids): 179.9±28.0 | atherosclerotic surface area, en-face analysis (Ldlr−/−Apobec1−/− mice; 0.003% (w/w) diet (0.03%), male Ldlr−/−Apobec1−/− mice): 24.9±6.9 % of the total aortic surface area | atherosclerotic lesion area, cross-sectional analysis at aortic valve (Ldlr−/−Apobec1−/− mice; 0.003% diet): 5.65±1.05 ×10^3 μm^2 | reduction of cross-sectional lesion area vs control (Ldlr−/−Apobec1−/− mice; 0.003% diet): 26% | reduction of en-face atherosclerotic area vs control (Ldlr−/−Apobec1−/− mice; 0.003% diet): 26% | total area affected by atherosclerosis compared with control mice (en face) (Ldlr−/−Apobec1−/− mice; 0.003% morelloflavone-containing diet): substantially lower | phosphorylation of c-Src (c-Src): inhibited; also recorded: robustly decreased phosphorylation; also recorded: blocks | phosphorylation of FAK [2]: inhibited; also recorded: robustly decreased phosphorylation; also recorded: blocks
